The NIST ThermoML archive (doi:10.1016/j.fluid.2006.07.016)
± gives the expanded uncertainty stated by the source.

Assays:
[1] = refractive index (Na D-line) (dimensionless); details: 298.2 K; 101.33 kPa; Liquid; Standard Abbe refractometry
[2] = 298.2 K; 101.33 kPa; Liquid

Structure (SMILES)	refractive index [1]	mass density [2]
CCCOC(C)=O [propyl ethanoate]	1.3828 ± 0.0007	882.5 ± 0.4 kg/m3
CCCO [propan-1-ol]	1.3839 ± 0.0007	799.7 ± 0.5 kg/m3
